Square brackets hold non-standard residues; d marks the D form. Peptide text beside a SMILES is read from it. * marks the point of attachment. Phe(3,4-Cl2) = N[C@@H](Cc1ccc(Cl)c(Cl)c1)C(=O)O; 1Nal = N[C@@H](Cc1cccc2ccccc12)C(=O)O; Stearoyl = CCCCCCCCCCCCCCCCCC(=O)*; Palmitoyl = CCCCCCCCCCCCCCCC(=O)*; Myristoyl = CCCCCCCCCCCCCC(=O)*; Lauroyl = CCCCCCCCCCCC(=O)*; Nle = CCCC[C@H](N)C(=O)O
Assays:
rat PrRP receptor = target: T1, rat PrRP receptor (Rattus norvegicus, UniProt Q64121); test: Competitive binding in RC-4B/C rat pituitary cells (125I-rat PrRP31); conditions: for % of PrRP31, RC-4B/C rat pituitary cells: affinity relative to PrRP31
T1 construct: host or cells: RC-4B/C rat pituitary cell line
T1 sequence (Q64121 1-370): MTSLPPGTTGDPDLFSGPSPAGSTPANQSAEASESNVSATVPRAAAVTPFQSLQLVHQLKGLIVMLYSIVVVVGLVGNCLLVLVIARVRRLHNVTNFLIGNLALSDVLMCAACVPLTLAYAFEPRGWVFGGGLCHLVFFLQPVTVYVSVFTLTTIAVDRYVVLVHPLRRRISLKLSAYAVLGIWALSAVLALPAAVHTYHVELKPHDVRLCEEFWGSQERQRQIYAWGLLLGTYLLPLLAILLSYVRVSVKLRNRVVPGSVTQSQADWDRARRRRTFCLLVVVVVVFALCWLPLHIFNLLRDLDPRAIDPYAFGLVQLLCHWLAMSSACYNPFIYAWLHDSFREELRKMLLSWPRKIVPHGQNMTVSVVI
Method in brief: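 Displacement of rat 125I-PrRP31 ([…]) by test analogs, 10^−11–10^−4 mol·l^−1, on whole RC-4B/C cells, 60 min RT. Bound counts measured by γ-counter in duplicate, ≥3 repeats, analyzed by nonlinear one-site binding regression.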

[1] = target: T2, human PrRP receptor GPR10 (Homo sapiens, UniProt P49683); test: Competitive binding in CHO cells transfected with human GPR10 (human 125I-PrRP31); conditions: for % of PrRP31, GPR10 human receptor transfected in CHO cells: affinity relative to PrRP31
T2 construct: host or cells: CHO cells
T2 sequence (P49683 1-370): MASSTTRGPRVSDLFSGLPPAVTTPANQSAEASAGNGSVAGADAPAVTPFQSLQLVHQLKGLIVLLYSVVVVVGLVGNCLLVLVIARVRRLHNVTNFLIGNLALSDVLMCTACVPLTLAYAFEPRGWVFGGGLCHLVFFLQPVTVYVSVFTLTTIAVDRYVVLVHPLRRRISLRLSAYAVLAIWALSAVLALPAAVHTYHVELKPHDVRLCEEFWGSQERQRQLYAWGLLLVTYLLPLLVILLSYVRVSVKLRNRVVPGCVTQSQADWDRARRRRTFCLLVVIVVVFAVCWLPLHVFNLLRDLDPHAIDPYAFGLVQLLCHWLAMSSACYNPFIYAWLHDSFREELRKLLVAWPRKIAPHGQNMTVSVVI
Method in brief: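 Values from one-site nonlinear regression of displacement curves: analogs (final 10^-11 to 10^-4 mol·l^-1) competed with 125I-PrRP31 (final 5×10^-11 mol·l^-1) on adherent human GPR10 CHO cells. Binding ran 1 h at room temperature, pH 7.4 buffer with NaCl, MgCl2, CaCl2, glucose, BSA; cell-bound radioactivity counted after NaOH lysis.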

C57BL/6 mice = test: Food intake in fasted mice after SC injection; format: in vivo; conditions: 5 mg/kg SC, 45 min after injection
Method in brief: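 Saline, PrRP or a lipidated analog was injected SC (1-10 mg/kg) after a 17 h fast with free water, animals housed singly.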

Row | SMILES | % of PrRP31, RC-4B/C rat pituitary cells (rat PrRP receptor) [%] | % of PrRP31, GPR10 human receptor transfected in CHO cells [1] [%] | Ki (rat PrRP receptor; RC-4B/C cells, displacement of 125I-rat PrRP31, read-out: Ki, RC-4B/C rat pituitary cells ^25I-rat PrRP31) [nM] | Ki ([1]; CHO cells, human 125I-PrRP31, read-out: Ki, GPR10 human receptor transfected in CHO cells) [nM] | Food intake in mice % of saline-treated group (C57BL/6 mice) [%]
1 | CCCCCCCCCCCC(=O)N[C@@H](CO)C(=O)N[C@@H](CCCNC(=N)N)C(=O)N[C@@H](C)C(=O)N[C@@H](Cc1c[nH]cn1)C(=O)N[C@@H](CCC(N)=O)C(=O)N[C@@H](Cc1c[nH]cn1)C(=O)N[C@@H](CO)C(=O)N[C@@H](CCCC)C(=O)N[C@@H](CCC(=O)O)C(=O)N[C@H](C(=O)N[C@@H](CCCNC(=N)N)C(=O)N[C@H](C(=O)N1CCC[C@H]1C(=O)N[C@@H](CC(=O)O)C(=O)N[C@H](C(=O)N[C@@H](CC(N)=O)C(=O)N1CCC[C@H]1C(=O)N[C@@H](C)C(=O)N[C@@H](Cc1c[nH]c2ccccc12)C(=O)N[C@@H](Cc1ccc(O)cc1)C(=O)N[C@H](C(=O)NCC(=O)N[C@@H](CCCNC(=N)N)C(=O)NCC(=O)N[C@H](C(=O)N[C@@H](CCCNC(=N)N)C(=O)N1CCC[C@H]1C(=O)N[C@H](C(=O)NCC(=O)N[C@@H](CCCNC(=N)N)C(=O)N[C@@H](Cc1ccccc1)C(N)=O)C(C)C)[C@@H](C)CC)[C@@H](C)O)[C@@H](C)CC)[C@@H](C)O)[C@@H](C)O [Analog 6] (Lauroyl-SRAHQHS[Nle]ETRTPDINPAWYTGRGIRPVGRF-NH2) | 1264 | 327 | – | – | 22
2 | CCCCCCCCCCCCCC(=O)N[C@@H](CO)C(=O)N[C@@H](CCCNC(=N)N)C(=O)N[C@@H](C)C(=O)N[C@@H](Cc1c[nH]cn1)C(=O)N[C@@H](CCC(N)=O)C(=O)N[C@@H](Cc1c[nH]cn1)C(=O)N[C@@H](CO)C(=O)N[C@@H](CCCC)C(=O)N[C@@H](CCC(=O)O)C(=O)N[C@H](C(=O)N[C@@H](CCCNC(=N)N)C(=O)N[C@H](C(=O)N1CCC[C@H]1C(=O)N[C@@H](CC(=O)O)C(=O)N[C@H](C(=O)N[C@@H](CC(N)=O)C(=O)N1CCC[C@H]1C(=O)N[C@@H](C)C(=O)N[C@@H](Cc1c[nH]c2ccccc12)C(=O)N[C@@H](Cc1ccc(O)cc1)C(=O)N[C@H](C(=O)NCC(=O)N[C@@H](CCCNC(=N)N)C(=O)NCC(=O)N[C@H](C(=O)N[C@@H](CCCNC(=N)N)C(=O)N1CCC[C@H]1C(=O)N[C@H](C(=O)NCC(=O)N[C@@H](CCCNC(=N)N)C(=O)N[C@@H](Cc1ccccc1)C(N)=O)C(C)C)[C@@H](C)CC)[C@@H](C)O)[C@@H](C)CC)[C@@H](C)O)[C@@H](C)O [Analog 7] (Myristoyl-SRAHQHS[Nle]ETRTPDINPAWYTGRGIRPVGRF-NH2) | 714 | 548 | – | – | 3
3 | CCCCCCCCCCCCCCCC(=O)N[C@@H](CO)C(=O)N[C@@H](CCCNC(=N)N)C(=O)N[C@@H](C)C(=O)N[C@@H](Cc1c[nH]cn1)C(=O)N[C@@H](CCC(N)=O)C(=O)N[C@@H](Cc1c[nH]cn1)C(=O)N[C@@H](CO)C(=O)N[C@@H](CCCC)C(=O)N[C@@H](CCC(=O)O)C(=O)N[C@H](C(=O)N[C@@H](CCCNC(=N)N)C(=O)N[C@H](C(=O)N1CCC[C@H]1C(=O)N[C@@H](CC(=O)O)C(=O)N[C@H](C(=O)N[C@@H](CC(N)=O)C(=O)N1CCC[C@H]1C(=O)N[C@@H](C)C(=O)N[C@@H](Cc1c[nH]c2ccccc12)C(=O)N[C@@H](Cc1ccc(O)cc1)C(=O)N[C@H](C(=O)NCC(=O)N[C@@H](CCCNC(=N)N)C(=O)NCC(=O)N[C@H](C(=O)N[C@@H](CCCNC(=N)N)C(=O)N1CCC[C@H]1C(=O)N[C@H](C(=O)NCC(=O)N[C@@H](CCCNC(=N)N)C(=O)N[C@@H](Cc1ccccc1)C(N)=O)C(C)C)[C@@H](C)CC)[C@@H](C)O)[C@@H](C)CC)[C@@H](C)O)[C@@H](C)O [Analog 8] (Palmitoyl-SRAHQHS[Nle]ETRTPDINPAWYTGRGIRPVGRF-NH2) | 967 | 128 | – | – | 7
4 | CCCCCCCCCCCCCCCCCC(=O)N[C@@H](CO)C(=O)N[C@@H](CCCNC(=N)N)C(=O)N[C@@H](C)C(=O)N[C@@H](Cc1c[nH]cn1)C(=O)N[C@@H](CCC(N)=O)C(=O)N[C@@H](Cc1c[nH]cn1)C(=O)N[C@@H](CO)C(=O)N[C@@H](CCCC)C(=O)N[C@@H](CCC(=O)O)C(=O)N[C@H](C(=O)N[C@@H](CCCNC(=N)N)C(=O)N[C@H](C(=O)N1CCC[C@H]1C(=O)N[C@@H](CC(=O)O)C(=O)N[C@H](C(=O)N[C@@H](CC(N)=O)C(=O)N1CCC[C@H]1C(=O)N[C@@H](C)C(=O)N[C@@H](Cc1c[nH]c2ccccc12)C(=O)N[C@@H](Cc1ccc(O)cc1)C(=O)N[C@H](C(=O)NCC(=O)N[C@@H](CCCNC(=N)N)C(=O)NCC(=O)N[C@H](C(=O)N[C@@H](CCCNC(=N)N)C(=O)N1CCC[C@H]1C(=O)N[C@H](C(=O)NCC(=O)N[C@@H](CCCNC(=N)N)C(=O)N[C@@H](Cc1ccccc1)C(N)=O)C(C)C)[C@@H](C)CC)[C@@H](C)O)[C@@H](C)CC)[C@@H](C)O)[C@@H](C)O [Analog 9] (Stearoyl-SRAHQHS[Nle]ETRTPDINPAWYTGRGIRPVGRF-NH2) | 514 | 7 | – | – | 3.5

Second part, led by results:

Row | % of PrRP31, RC-4B/C rat pituitary cells (rat PrRP receptor) [%] | % of PrRP31, GPR10 human receptor transfected in CHO cells [1] [%] | Ki (rat PrRP receptor; RC-4B/C cells, displacement of 125I-rat PrRP31, read-out: Ki, RC-4B/C rat pituitary cells ^25I-rat PrRP31) [nM] | Ki ([1]; CHO cells, human 125I-PrRP31, read-out: Ki, GPR10 human receptor transfected in CHO cells) [nM] | SMILES | Food intake in mice % of saline-treated group (C57BL/6 mice) [%]
5 | 111 | 91 | – | – | CCCCCCCCCCCCCCCC(=O)N[C@@H](CO)C(=O)N[C@@H](CCCNC(=N)N)C(=O)N[C@@H](C)C(=O)N[C@@H](Cc1c[nH]cn1)C(=O)N[C@@H](CCC(N)=O)C(=O)N[C@@H](Cc1c[nH]cn1)C(=O)N[C@@H](CO)C(=O)N[C@@H](CCCC)C(=O)N[C@@H](CCC(=O)O)C(=O)N[C@H](C(=O)N[C@@H](CCCNC(=N)N)C(=O)N[C@H](C(=O)N1CCC[C@H]1C(=O)N[C@@H](CC(=O)O)C(=O)N[C@H](C(=O)N[C@@H](CC(N)=O)C(=O)N1CCC[C@H]1C(=O)N[C@@H](C)C(=O)N[C@@H](Cc1c[nH]c2ccccc12)C(=O)N[C@@H](Cc1ccc(O)cc1)C(=O)N[C@H](C(=O)NCC(=O)N[C@@H](CCCNC(=N)N)C(=O)NCC(=O)N[C@H](C(=O)N[C@@H](CCCNC(=N)N)C(=O)N1CCC[C@H]1C(=O)N[C@H](C(=O)NCC(=O)N[C@@H](CCCNC(=N)N)C(=O)N[C@@H](Cc1cccc2ccccc12)C(N)=O)C(C)C)[C@@H](C)CC)[C@@H](C)O)[C@@H](C)CC)[C@@H](C)O)[C@@H](C)O [Analog 12] (Palmitoyl-SRAHQHS[Nle]ETRTPDINPAWYTGRGIRPVGR[1Nal]-NH2) | 13
6 | 275 | 409 | 1.79 ± 1.02 | 0.95 ± 0.33 | CCCCCCCCCCCCCC(=O)N[C@@H](CO)C(=O)N[C@@H](CCCNC(=N)N)C(=O)N[C@@H](C)C(=O)N[C@@H](Cc1c[nH]cn1)C(=O)N[C@@H](CCC(N)=O)C(=O)N[C@@H](Cc1c[nH]cn1)C(=O)N[C@@H](CO)C(=O)N[C@@H](CCCC)C(=O)N[C@@H](CCC(=O)O)C(=O)N[C@H](C(=O)N[C@@H](CCCNC(=N)N)C(=O)N[C@H](C(=O)N1CCC[C@H]1C(=O)N[C@@H](CC(=O)O)C(=O)N[C@H](C(=O)N[C@@H](CC(N)=O)C(=O)N1CCC[C@H]1C(=O)N[C@@H](C)C(=O)N[C@@H](Cc1c[nH]c2ccccc12)C(=O)N[C@@H](Cc1ccc(O)cc1)C(=O)N[C@H](C(=O)NCC(=O)N[C@@H](CCCNC(=N)N)C(=O)NCC(=O)N[C@H](C(=O)N[C@@H](CCCNC(=N)N)C(=O)N1CCC[C@H]1C(=O)N[C@H](C(=O)NCC(=O)N[C@@H](CCCNC(=N)N)C(=O)N[C@@H](Cc1ccc(Cl)c(Cl)c1)C(N)=O)C(C)C)[C@@H](C)CC)[C@@H](C)O)[C@@H](C)CC)[C@@H](C)O)[C@@H](C)O [Analog 14] (Myristoyl-SRAHQHS[Nle]ETRTPDINPAWYTGRGIRPVGR[Phe(3,4-Cl2)]-NH2) | 13

From patent US10350271B2, “Lipidated peptides for lowering blood glucose” (USTAV ORGANICKE CHEMIE A BIOCHEMIE AKADEMIE VED CR, V.V.I., priority 2014, dated 2019)
